Assay results reported in patent US20060039955A1, “Animal feed compositions with enhanced histidine content” (Cargill, Incorporated, priority 2004, published 2006).

How the values were obtained:
[1] = Poultry digestibility trial (intestinal digestibility of His and Lys sources); assay type: in vivo
Experimental: This trial tested four different sources of AA for their intestinal digestibility. Crystalline His and Lys were coated with partially hydrogenated vegetable oil to test their digestibility as compared to His(HCl) and Lys(HCl), respectively. His(HCl) contains 74.3 wt. % His, whereas, the coated product contains 40 wt. % His. Lys(HCl) contains 78.8 wt. % Lys, whereas, the coated product contains 45 wt. % Lys. For this trial the test articles were added at low levels. The control diet was used as a blank to measure endogenous losses and to calculate the digestibility of His and Lys. The control diet was spiked with His or Lys by using either His(HCl) or Lys(HCl), respectively, (0.50% inclusion rate). This provided His and Lys at 0.372% and 0.394%, respectively. The coated His and Lys products were added to provide the same level of His or Lys as provided by the His(HCl) or Lys(HCl), respectively. The digestibility of His and Lys in the casein was determined and this effect was assessed in calculating the digestibility of the coated His and coated Lys. All test diets contained the same amount of casein (the only other source of His and Lys) as the control diet.

[2] = design: species or system cows; conditions: cow, in vivo
Experimental: Free Amino Acid degradation in vivo was determined using a technique that used cobalt (CoII) as a ruminal flow marker to follow the flow of Maillard-protected histidine (which had been reacted with lactose) out of the rumen. Maillard-protected histidine loss was evaluated relative to CoII outflow in fistulated cows. Free histidine or histidine modified by the Maillard Reaction Protocol were introduced into fistulated cows together with Cobalt II. After introducing the histidine or modified histidine into the cows, samples of rumen fluid periodically were withdrawn and the amount of histidine was determined using an O-phthaldialdehyde assay as described by Roth (1971), Anal. Chem. 43:880. The amount of CoII was determined using inductively coupled plasma emission spectroscopy. The amount of histidine related to CoII was plotted versus time to calculate a degradation coefficient (Kd) for free and protected histidine.

Question: Which “App. His Dig.” value ([1]; apparent histidine digestibility, His at 0.372% of diet) does the source give for `Cl.N[C@@H](Cc1c[nH]cn1)C(=O)O` [Histidine HCl] here?
Answer: 99.3

Question: What about the “True His. Dig.” value ([1]; true histidine digestibility, His at 0.372% of diet) of the same compound?
Answer: 100.2

Question: For `Cl.NCCCC[C@H](N)C(=O)O` [Lysine HCL], which “App. Lys. Dig.” value ([1]; apparent lysine digestibility, Lys at 0.394% of diet) is on record?
Answer: 97.3

Question: What about the “True Lys Dig.” value ([1]; true lysine digestibility, Lys at 0.394% of diet) of the same compound?
Answer: 99.6

Question: For `N[C@@H](Cc1c[nH]cn1)C(=O)O` [free histidine, histidine], which “degradation coefficient (Kd)” value [2] is on record?
Answer: 0.000208 to 0.000264 s⁻¹
